# Laboratory results as given in article PMC5062169, “Structural basis for ligand recognition by a Cache chemosensory domain that mediates carboxylate sensing in Pseudomonas syringae” (Scientific Reports, 2016).
# Peptide text beside a SMILES is read from it.
# Molecular target: T1, PscD (PscD-SD, Cache sensor domain of chemoreceptor PscD) (Pseudomonas syringae, UniProt A0ABY1U976)
# T1 construct: gene CFBP3846_03581; sensor domain, Gln31-Trp188, N-terminal His6 tag
# T1 sequence (A0ABY1U976 31-188): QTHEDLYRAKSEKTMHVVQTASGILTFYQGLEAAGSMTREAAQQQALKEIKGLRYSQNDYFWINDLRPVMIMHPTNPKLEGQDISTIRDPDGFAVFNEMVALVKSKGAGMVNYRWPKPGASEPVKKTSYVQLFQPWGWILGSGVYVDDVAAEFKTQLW
# Settings: Biolog plate compound, exact concentration unknown; binder
# From the text: (§1) We used high-throughput fluorescence thermal shift (FTS) assays (as described previously[16]) to screen for potential ligands of PscD-SD. FTS assays are based on the principle that ligands stabilise proteins upon binding, causing an increase in the melting temperature of the protein[22][23]. Binding can therefore be rapidly screened by measuring the difference in the temperature midpoint of unfolding (ΔTm) of a protein in the presence and absence of potential ligands. In our FTS assays, the Tm was measured by monitoring an increase in fluorescence of a dye with affinity for hydrophobic parts of the protein (i.e. SYPRO Orange), which are exposed as the protein unfolds. We screened the recombinant PscD-SD protein in FTS assays against the compounds in Biolog Phenotype Microarray (PM) plates 1 and 2 (Supplementary Tables 1 and 2). Each plate contains 95 different compounds (e.g., organic acids, sugars) and a water (no ligand) control. For use in FTS assays, the compounds were resuspended directly in water, thus generating a library of biologically relevant potential ligands. […] Fluorescent thermal shift (FTS) assays were conducted as reported previously. PscD-SD was screened for potential ligands against Biolog Phenotype Microarray (PM) plates 1 and 2 (Biolog, Hayward, CA, USA). For initial qualitative, high-throughput screening, ligands were prepared by dissolving Biolog PM compounds in 50 μL of water (each) to obtain a final concentration of approximately 10–20 mM (the exact concentrations vary from well-to-well). Screens were set up in Lightcycler 480 multiwell plates (Roche Diagnostics, Auckland, NZ) with 20 μM protein, a 5x concentration of SYPRO orange (Life Technologies, Carlsbad, CA, USA) and 5 μL of the test compound (i.e. resuspended Biolog ligands) added to each well. The plate was covered with Lightcycler 480 sealing film (Roche Diagnostics) and fluorescence signal was monitored as the temperature was increased from 20 °C to 80 °C at a rate of 1.2 °C.min^−1 in a Lightcycler 480 (Roche Diagnostics). Initial hits were further tested using known concentrations (0, 1, 2, 5 and 10 mM) of each potential ligand to confirm binding. The ligands were prepared as 10x stocks, 2 μL were added to each well, and the experiments were conducted as described above. The first derivative values (−dF/dt) from the raw fluorescence data were used to determine the melting temperature (Tm). Three biological replicates (from independently cultured and purified batches of protein) were performed for each plate screened.
row,SMILES,Δ Tm
1,OC[C@@H](O)[C@@H](O)[C@@H](O)CO [Adonitol],0.12 ± 0.03 °C
2,O=C(O)[C@@H]1CCCN1 [L-Proline],0.07 ± 0.04 °C
3,C[C@H](O)C(=O)O [L-Lactic Acid],0.12 ±0.03 °C
4,CCC(=O)C(=O)O [α-Keto-Butyric Acid],0.17 ± 0.05 °C
5,NC(=O)[C@H]1O[C@@H](O)[C@H](O)[C@@H](O)[C@@H]1O [Glucuronamide],0.17 ± 0.06 °C
6,CCC(O)C(=O)O (stereo not drawn) [α-Hydroxy Butyric Acid],0.17 ± 0.05 °C
7,NCCc1ccc(O)cc1 [Tyramine],0.12 ± 0.03 °C
8,Nc1ncnc2c1ncn2[C@H]1C[C@H](O)[C@@H](CO)O1 [2-Deoxy-Adenosine],0.17 ± 0.05 °C
9,O=C(O)CCC(=O)C(=O)O [α-Keto-Glutaric Acid],0.17 ± 0.02 °C
10,NCCO [2-Aminoethanol],0.15 ± 0.05 °C
11,O=C(O)CC(Br)C(=O)O (centres unmarked) [Bromo Succinic Acid],0.05 ± 0.10 °C
12,O[C@@H]1[C@H](O)[C@H](O)CO[C@H]1O [D-Ribose],0.12 ±0.05 °C
13,O[C@@H]1[C@@H](O)[C@@H](O)CO[C@H]1O [L-Arabinose],0.05 ± 0.07 °C
14,OC[C@@H](O)[C@@H](O)[C@H](O)[C@H](O)CO [D-Mannitol],0.17 ±0.05 °C
15,N[C@@H](CCC(=O)O)C(=O)O [L-glutamic acid],0.15 ±0.05 °C
16,OC[C@H]1O[C@@H](O[C@@H]2[C@@H](CO)OC(O)(CO)[C@H]2O)[C@H](O)[C@@H](O)[C@H]1O (mixture of isomers) [Lactulose],0.20 ± 0.03 °C
17,N[C@@H](C(=O)O)[C@@H](O)[C@H](O)[C@H](O)CO [D-Glucosaminic Acid],0.10 ± 0.05 °C
18,NC(=O)CC[C@H](N)C(=O)O [L-Glutamine],0.00 ± 0.00 °C
19,"CC(O)CO (centres unmarked) [1,2-Propanediol]",0.12 ± 0.05 °C
20,O=c1[nH]cnc2c1ncn2[C@@H]1O[C@H](CO)[C@@H](O)[C@H]1O [Inosine],0.15 ± 0.05 °C
21,OC[C@H]1OC(O)[C@@H](O)[C@@H](O)[C@@H]1O (stereo partly drawn) [D-Mannose],0.17 ± 0.05 °C
22,NC(=O)C[C@H](N)C(=O)O [L-Asparagine],0.00 ± 0.00 °C
23,OC[C@H]1O[C@H](O[C@H]2[C@H](O)[C@@H](O)[C@H](O)O[C@@H]2CO)[C@H](O)[C@@H](O)[C@@H]1O [Maltose],0.20 ± 0.03 °C

row,SMILES,Δ Tm
1,C[C@H](N)C(=O)O [L-Alanine],0.10 ± 0.03 °C
2,O=P(O)(O)O[C@H]1O[C@H](CO)[C@@H](O)[C@H](O)[C@H]1O [D-Glucose-1-Phosphate],0.10 ± 0.05 °C
3,COC(=O)CCC(=O)O [Mono Methyl Succinate],0.12 ± 0.03 °C
4,O=C[C@H](O)[C@H](O)[C@@H](O)CO [L-Lyxose],0.28 ± 0.05 °C
5,NCC(=O)N[C@@H](CCC(=O)O)C(=O)O [Glycyl-L-Glutamic Acid] (H-Gly-Glu-OH),0.00 ± 0.00 °C
6,O=C(O)[C@H](O)[C@@H](O)[C@H](O)[C@H](O)CO [D-Gluconic Acid],0.17 ± 0.02 °C
7,OC[C@@H](O)[C@@H](O)[C@H](O)[C@@H](O)CO [D-Sorbitol],0.05 ± 0.07 °C
8,O=C(CO)[C@@H](O)[C@H](O)[C@H](O)CO [D-Fructose],0.17 ± 0.05 °C
9,O=C(O)CC(CC(=O)O)C(=O)O [Tricarballylic Acid],-0.03 ± 0.05 °C
10,OC[C@H]1O[C@@](CO)(O[C@H]2O[C@H](CO)[C@@H](O)[C@H](O)[C@H]2O)[C@@H](O)[C@@H]1O [Sucrose],0.17 ± 0.05 °C
11,Cc1cn([C@H]2C[C@H](O)[C@@H](CO)O2)c(=O)[nH]c1=O [Thymidine],0.15 ± 0.05 °C
12,O=C(O)CCC(=O)O [Succinic Acid],0.10 ± 0.03 °C
13,O=C(O)C[C@@H](O)C(=O)O [D-Malic Acid],0.17 ± 0.05 °C
14,N[C@@H](CO)C(=O)O [L-Serine],0.10 ± 0.05 °C
15,C[C@H](O)[C@@H](O)[C@@H](O)[C@H](O)C=O [L-Fucose],0.12 ± 0.05 °C
16,NCCc1ccccc1 [Phenylethyl-amine],0.17 ± 0.05 °C
17,CC(=O)N[C@H]1[C@@H](O)[C@H](O)[C@@H](CO)O[C@H]1O [N-Acetyl-β-D-Mannosamine],0.07 ± 0.04 °C
18,Nc1ncnc2c1ncn2[C@@H]1O[C@H](CO)[C@@H](O)[C@H]1O [Adenosine],0.15 ± 0.05 °C
19,N[C@@H](CC(=O)O)C(=O)O [L-Aspartic Acid],0.17 ± 0.05 °C
20,OC[C@H]1O[C@@H](O[C@H]2[C@H](O)[C@@H](O)[C@@H](O)O[C@@H]2CO)[C@H](O)[C@@H](O)[C@H]1O [α-D-Lactose],0.12 ± 0.03 °C
21,O=c1ccn([C@@H]2O[C@H](CO)[C@@H](O)[C@H]2O)c(=O)[nH]1 [Uridine],0.15 ± 0.05 °C
22,O=C[C@H](O)[C@@H](O)[C@@H](O)[C@H](O)CO [D-Galactose],0.17 ± 0.02 °C

# Molecular target: T1, PscD (PscD-SD, Cache sensor domain of chemoreceptor PscD)
# Design: fluorescence thermal shift (SYPRO Orange) screen of Biolog PM1/PM2 compounds, delta Tm
# Settings: Biolog plate compound, exact concentration unknown; binder
# Remark: another data set of the same source
# From the text: as §1
row,SMILES,Δ Tm
1,OC[C@H]1O[C@@H]2O[C@H]3[C@H](O)[C@@H](O)[C@@H](O[C@H]4[C@H](O)[C@@H](O)[C@@H](O[C@H]5[C@H](O)[C@@H](O)[C@@H](O[C@H]6[C@H](O)[C@@H](O)[C@@H](O[C@H]7[C@H](O)[C@@H](O)[C@@H](O[C@H]8[C@H](O)[C@@H](O)[C@@H](O[C@H]1[C@H](O)[C@H]2O)O[C@@H]8CO)O[C@@H]7CO)O[C@@H]6CO)O[C@@H]5CO)O[C@@H]4CO)O[C@@H]3CO [β-Cyclodextrin],0.45 ± 0.0 °C
2,CC(C)[C@H](N)C(=O)O [L-Valine],0.03 ± 0.03 °C
3,O=C(O)C(=O)O [Oxalic Acid],0.03 ± 0.03 °C
4,CC(=O)N[C@@H](CO)[C@@H](O)[C@H](O)[C@H](O)CO [N-Acetyl-D-Glucosaminitol],0.08 ± 0.00 °C
5,O=C(O)CC(=O)O [Malonic Acid],0.08 ± 0.00 °C
6,OC[C@H](O)C(O)[C@@H](O)CO [L-Arabitol],0.03 ± 0.03 °C
7,OC1OC[C@@H](O)[C@@H](O)[C@@H]1O (stereo partly drawn) [D-Arabinose],0.05 ± 0.05 °C
8,"C[N+](C)(C)CC(O)CC(=O)[O-] (racemic) [D,L-Carnitine]",-0.02 ± 0.02 °C
9,NCC(=O)O [Glycine],0.05 ± 0.05 °C
10,CC(O)(CC(=O)O)C(=O)O (centres unmarked) [Citramalic Acid],0.03 ± 0.03 °C
11,N[C@@H](CCO)C(=O)O [L-Homoserine],0.03 ± 0.03 °C
12,"NCC(O)c1ccc(O)cc1 (racemic) [D,L-Octopamine]",0.03 ± 0.03 °C
13,OC[C@H]1O[C@@H]2O[C@H]3[C@H](O)[C@@H](O)[C@@H](O[C@H]4[C@H](O)[C@@H](O)[C@@H](O[C@H]5[C@H](O)[C@@H](O)[C@@H](O[C@H]6[C@H](O)[C@@H](O)[C@@H](O[C@H]7[C@H](O)[C@@H](O)[C@@H](O[C@H]8[C@H](O)[C@@H](O)[C@@H](O[C@H]9[C@H](O)[C@@H](O)[C@@H](O[C@H]1[C@H](O)[C@H]2O)O[C@@H]9CO)O[C@@H]8CO)O[C@@H]7CO)O[C@@H]6CO)O[C@@H]5CO)O[C@@H]4CO)O[C@@H]3CO [γ-Cyclodextrin],0.28 ± 0.07 °C
14,O=C(O)[C@H](O)[C@@H](O)[C@H](O)[C@H](O)CO[C@H]1O[C@H](CO)[C@H](O)[C@H](O)[C@H]1O [Melibionic Acid],0.08 ± 0.00 °C
